PubChem BioAssay AID2060906 (Molecular Pharmacology Branch, DTP, NCI, 2025)
Each block holds one compound with its values, some of them ahead of it.

Test system: 485176-168-R4-J1-PDC complex spheroid growth
Test: Anticancer human tumor 485176-168-R4-J1-PDC patient-derived pancreatic adenocarcinoma cell line growth inhibition [RAS]
Details: for IC50: curve of first compound; for viability, T/C: stronger effect = lower value
Summary of the method: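 Agents were tested in combination matrices in half-log decrements from a top concentration at or near clinical Cmax (10 microM if undetermined). Targets were multi-cell spheroids of tumour lines plus HUVEC and MSC stromal cells.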

[1] = second compound 0.00316 µM, first compound 0.0316 µM
[2] = second compound 0.00316 µM, first compound 0.1 µM
[3] = second compound 0.00316 µM, first compound 0.316 µM
[4] = second compound 0.00316 µM, first compound 1 µM
[5] = second compound 0.00316 µM, first compound 3.16 µM
[6] = second compound 0.00316 µM, first compound 10 µM
[7] = second compound 0.01 µM, first compound 0.0316 µM
[8] = second compound 0.01 µM, first compound 0.1 µM
[9] = second compound 0.01 µM, first compound 0.316 µM
[10] = second compound 0.01 µM, first compound 1 µM
[11] = second compound 0.01 µM, first compound 3.16 µM
[12] = second compound 0.01 µM, first compound 10 µM
[13] = second compound 0.0316 µM, first compound 0.0316 µM
[14] = second compound 0.0316 µM, first compound 0.1 µM
[15] = second compound 0.0316 µM, first compound 0.316 µM
[16] = second compound 0.0316 µM, first compound 1 µM
[17] = second compound 0.0316 µM, first compound 3.16 µM
[18] = second compound 0.0316 µM, first compound 10 µM
[19] = second compound 0.1 µM, first compound 0.0316 µM
[20] = second compound 0.1 µM, first compound 0.1 µM
[21] = second compound 0.1 µM, first compound 0.316 µM
[22] = second compound 0.1 µM, first compound 1 µM
[23] = second compound 0.1 µM, first compound 3.16 µM
[24] = second compound 0.1 µM, first compound 10 µM
[25] = second compound 0.316 µM, first compound 0.0316 µM
[26] = second compound 0.316 µM, first compound 0.1 µM
[27] = second compound 0.316 µM, first compound 0.316 µM
[28] = second compound 0.316 µM, first compound 1 µM
[29] = second compound 0.316 µM, first compound 3.16 µM
[30] = second compound 0.316 µM, first compound 10 µM
[31] = second compound 1 µM, first compound 0.0316 µM
[32] = second compound 1 µM, first compound 0.1 µM
[33] = second compound 1 µM, first compound 0.316 µM
[34] = second compound 1 µM, first compound 1 µM
[35] = second compound 1 µM, first compound 3.16 µM
[36] = second compound 1 µM, first compound 10 µM
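Also: spheroids exposed to compounds for seven days before readout.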
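For viability, T/C in this document: luminescence viability expressed relative to DMSO vehicle wells set as 100%.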

IC50 (second compound 0.00316 µM): 1970 nM
IC50 (second compound 0.01 µM): 2340 nM
IC50 (second compound 0.0316 µM): 2090 nM
IC50 (second compound 0.1 µM): 2220 nM
IC50 (second compound 0.316 µM): 3650 nM
IC50 (second compound 1 µM): 1810 nM
Structure (SMILES): CC1(O)CCCC1n1c(=O)c(C(F)F)cc2cnc(NC3CCN(S(C)(=O)=O)CC3)nc21 (stereo unspecified) + C=CC(=O)N1CCN(c2nc(OCC3CCCN3C)nc3c(F)c(-c4nc(N)cc(C)c4C(F)(F)F)c(Cl)cc23)C(C)C1
viability, T/C [1]: 97%
viability, T/C [2]: 77.5%
viability, T/C [3]: 59%
viability, T/C [4]: 60.3%
viability, T/C [5]: 55.9%
viability, T/C [6]: 4.16%
viability, T/C [7]: 80.2%
viability, T/C [8]: 61.8%
viability, T/C [9]: 66.7%
viability, T/C [10]: 67.7%
viability, T/C [11]: 43.9%
viability, T/C [12]: 2.59%
viability, T/C [13]: 91.2%
viability, T/C [14]: 81.6%
viability, T/C [15]: 70.2%
viability, T/C [16]: 58%
viability, T/C [17]: 51.5%
viability, T/C [18]: 2.26%
viability, T/C [19]: 91.8%
viability, T/C [20]: 74.5%
viability, T/C [21]: 68.9%
viability, T/C [22]: 68.7%
viability, T/C [23]: 45%
viability, T/C [24]: 3.32%
viability, T/C [25]: 103%
viability, T/C [26]: 62.5%
viability, T/C [27]: 73.4%
viability, T/C [28]: 68.1%
viability, T/C [29]: 62%
viability, T/C [30]: 3.67%
viability, T/C [31]: 104%
viability, T/C [32]: 86.8%
viability, T/C [33]: 69.4%
viability, T/C [34]: 49.1%
viability, T/C [35]: 62.6%
viability, T/C [36]: 2.11%

IC50 (second compound 0.00316 µM): > 1000 nM
IC50 (second compound 0.01 µM): > 1000 nM
IC50 (second compound 0.0316 µM): > 1000 nM
IC50 (second compound 0.1 µM): > 1000 nM
IC50 (second compound 0.316 µM): > 1000 nM
IC50 (second compound 1 µM): > 1000 nM
Structure (SMILES): CCN1CCN(Cc2ccc(Nc3ncc(F)c(-c4cc(F)c5nc(C)n(C(C)C)c5c4)n3)nc2)CC1 + C=CC(=O)N1CCN(c2nc(OCC3CCCN3C)nc3c(F)c(-c4nc(N)cc(C)c4C(F)(F)F)c(Cl)cc23)C(C)C1
viability, T/C (second compound 0.00316 µM, first compound 0.00316 µM): 102%
viability, T/C (second compound 0.00316 µM, first compound 0.01 µM): 92.7%
viability, T/C [1]: 107%
viability, T/C [2]: 88.7%
viability, T/C [3]: 69.1%
viability, T/C [4]: 59.7%
viability, T/C (second compound 0.01 µM, first compound 0.00316 µM): 108%
viability, T/C (second compound 0.01 µM, first compound 0.01 µM): 90.1%
viability, T/C [7]: 108%
viability, T/C [8]: 80.5%
viability, T/C [9]: 80.2%
viability, T/C [10]: 77.3%
viability, T/C (second compound 0.0316 µM, first compound 0.00316 µM): 101%
viability, T/C (second compound 0.0316 µM, first compound 0.01 µM): 89.8%
viability, T/C [13]: 88.2%
viability, T/C [14]: 80.5%
viability, T/C [15]: 95.8%
viability, T/C [16]: 53.9%
viability, T/C (second compound 0.1 µM, first compound 0.00316 µM): 116%
viability, T/C (second compound 0.1 µM, first compound 0.01 µM): 102%
viability, T/C [19]: 89%
viability, T/C [20]: 93.5%
viability, T/C [21]: 83.7%
viability, T/C [22]: 68.1%
viability, T/C (second compound 0.316 µM, first compound 0.00316 µM): 107%
viability, T/C (second compound 0.316 µM, first compound 0.01 µM): 108%
viability, T/C [25]: 77.5%
viability, T/C [26]: 92%
viability, T/C [27]: 75%
viability, T/C [28]: 60.1%
viability, T/C (second compound 1 µM, first compound 0.00316 µM): 97.1%
viability, T/C (second compound 1 µM, first compound 0.01 µM): 92.6%
viability, T/C [31]: 111%
viability, T/C [32]: 87%
viability, T/C [33]: 83.9%
viability, T/C [34]: 60%

IC50 (second compound 0.00316 µM): > 10000 nM
IC50 (second compound 0.01 µM): > 10000 nM
IC50 (second compound 0.0316 µM): > 10000 nM
IC50 (second compound 0.1 µM): > 10000 nM
IC50 (second compound 0.316 µM): > 10000 nM
IC50 (second compound 1 µM): > 10000 nM
Structure (SMILES): C[C@@H](NC(=O)c1ncnc(N)c1Cl)c1ncc(C(=O)Nc2cc(C(F)(F)F)c(Cl)cn2)s1 + C=CC(=O)N1CCN(c2nc(OCC3CCCN3C)nc3c(F)c(-c4nc(N)cc(C)c4C(F)(F)F)c(Cl)cc23)C(C)C1
viability, T/C [1]: 106%
viability, T/C [2]: 104%
viability, T/C [3]: 101%
viability, T/C [4]: 86.2%
viability, T/C [5]: 84.7%
viability, T/C [6]: 56.9%
viability, T/C [7]: 96.1%
viability, T/C [8]: 94%
viability, T/C [9]: 96.5%
viability, T/C [10]: 75.8%
viability, T/C [11]: 81.3%
viability, T/C [12]: 60.3%
viability, T/C [13]: 111%
viability, T/C [14]: 98.4%
viability, T/C [15]: 100%
viability, T/C [16]: 81.1%
viability, T/C [17]: 75.6%
viability, T/C [18]: 59.3%
viability, T/C [19]: 89.5%
viability, T/C [20]: 92.3%
viability, T/C [21]: 101%
viability, T/C [22]: 92%
viability, T/C [23]: 78.5%
viability, T/C [24]: 63.4%
viability, T/C [25]: 108%
viability, T/C [26]: 102%
viability, T/C [27]: 101%
viability, T/C [28]: 79.3%
viability, T/C [29]: 83.2%
viability, T/C [30]: 53%
viability, T/C [31]: 100%
viability, T/C [32]: 95.7%
viability, T/C [33]: 77.3%
viability, T/C [34]: 88.5%
viability, T/C [35]: 63.7%
viability, T/C [36]: 52.1%
